Converted amounts (≈) assume the structure as drawn.
Experiments:
Format in all cases: functional
Staphylococcus aureus [1] = experiment: Antimicrobial activity against methicillin-resistant Staphylococcus aureus using tryptone soy broth
Staphylococcus aureus [2] = experiment: Antimicrobial activity against methicillin-resistant Staphylococcus aureus using tryptone soy broth in presence of bovine serum albumin
Staphylococcus aureus [3] = experiment: Antimicrobial activity against methicillin-resistant Staphylococcus aureus using tryptone soy broth in presence of oleic acid
Staphylococcus aureus [4] = experiment: Antimicrobial activity against methicillin-resistant Staphylococcus aureus using tryptone soy broth in presence of tween-80

| Compound | MIC (Staphylococcus aureus [1]) | MIC (Staphylococcus aureus [2]) | MIC (Staphylococcus aureus [3]) | MIC (Staphylococcus aureus [4]) |
| --- | --- | --- | --- | --- |
| Oc1cc(Cl)ccc1Oc1ccc(Cl)cc1Cl [TRICLOSAN] | 20 µg/mL (≈ 69.1 µM) | 20 µg/mL | 2000 µg/mL | > 10000 µg/mL |
| CCC(C)SN1C(=O)[C@H](OC)[C@@H]1c1ccccc1Cl (some centres not stated) | 1000 µg/mL (≈ 3340 µM) | – | 2000 µg/mL | 3000 µg/mL |

— ChEMBL document CHEMBL1828536, “The impact of fatty acids on the antibacterial properties of N-thiolated β-lactams” (2011)
